pIC50: −log10 of the molar value. Values joined by “and” are separate entries in the source; they are usually repeats but may differ in a detail not shown here. Identical values can stand only once. One block for each compound: values may come before it.
Test system: 843782-103-R-J1-PDC complex spheroid viability
Assay: Anticancer human tumor 843782-103-R-J1-PDC patient-derived lung adenocarcinoma cell line growth inhibition [RAS]
Settings: for viability, T/C: stronger effect = lower value
Procedure, shortened: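 Multi-cell-type spheroids: tumor cells plus HUVEC endothelial cells and mesenchymal stem cells. RAS-pathway inhibitors were combined with targeted agents, each dosed in half-log steps down from clinical Cmax, or from 10 microM when Cmax was unknown.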

[1] = curve of first compound, second compound 0.000949 µM
[2] = curve of first compound, second compound 0.003 µM
[3] = curve of first compound, second compound 0.00949 µM
[4] = curve of first compound, second compound 0.03 µM
[5] = curve of first compound, second compound 0.0949 µM
[6] = curve of first compound, second compound 0.3 µM
[7] = second compound 0.000949 µM, first compound 0.0316 µM
[8] = second compound 0.000949 µM, first compound 0.1 µM
[9] = second compound 0.000949 µM, first compound 0.316 µM
[10] = second compound 0.000949 µM, first compound 1 µM
[11] = second compound 0.000949 µM, first compound 3.16 µM
[12] = second compound 0.000949 µM, first compound 10 µM
[13] = second compound 0.003 µM, first compound 0.0316 µM
[14] = second compound 0.003 µM, first compound 0.1 µM
[15] = second compound 0.003 µM, first compound 0.316 µM
[16] = second compound 0.003 µM, first compound 1 µM
[17] = second compound 0.003 µM, first compound 3.16 µM
[18] = second compound 0.003 µM, first compound 10 µM
[19] = second compound 0.00949 µM, first compound 0.0316 µM
[20] = second compound 0.00949 µM, first compound 0.1 µM
[21] = second compound 0.00949 µM, first compound 0.316 µM
[22] = second compound 0.00949 µM, first compound 1 µM
[23] = second compound 0.00949 µM, first compound 3.16 µM
[24] = second compound 0.00949 µM, first compound 10 µM
[25] = second compound 0.03 µM, first compound 0.0316 µM
[26] = second compound 0.03 µM, first compound 0.1 µM
[27] = second compound 0.03 µM, first compound 0.316 µM
[28] = second compound 0.03 µM, first compound 1 µM
[29] = second compound 0.03 µM, first compound 3.16 µM
[30] = second compound 0.03 µM, first compound 10 µM
[31] = second compound 0.0949 µM, first compound 0.0316 µM
[32] = second compound 0.0949 µM, first compound 0.1 µM
[33] = second compound 0.0949 µM, first compound 0.316 µM
[34] = second compound 0.0949 µM, first compound 1 µM
[35] = second compound 0.0949 µM, first compound 3.16 µM
[36] = second compound 0.0949 µM, first compound 10 µM
[37] = second compound 0.3 µM, first compound 0.0316 µM
[38] = second compound 0.3 µM, first compound 0.1 µM
[39] = second compound 0.3 µM, first compound 0.316 µM
[40] = second compound 0.3 µM, first compound 1 µM
[41] = second compound 0.3 µM, first compound 3.16 µM
[42] = second compound 0.3 µM, first compound 10 µM
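Further: viability read after seven days of compound exposure.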

- pIC50 [1]: 6.29
- pIC50 [2]: 6.62
- pIC50 [3]: > 7.50
- pIC50 [4]: > 7.50
- pIC50 [5]: > 7.50
- pIC50 [6]: > 7.50
SMILES: CC(C)NCC(C(=O)N1CCN(c2ncnc3c2C(C)CC3O)CC1)c1ccc(Cl)cc1 (stereo not drawn) + CCn1c(-c2cc(N3CCN(C)CC3)cnc2C(C)OC)c2c3cc(ccc31)-c1csc(n1)CC(NC(=O)C1CC1C)C(=O)N1CCCC(N1)C(=O)OCC(C)(C)C2
- viability, T/C [7]: 80.6%
- viability, T/C [8]: 73.9%
- viability, T/C [9]: 64.6%
- viability, T/C [10]: 30.4%
- viability, T/C [11]: 14.7%
- viability, T/C [12]: 6.49%
- viability, T/C [13]: 62.2%
- viability, T/C [14]: 63.7%
- viability, T/C [15]: 44.8%
- viability, T/C [16]: 25.8%
- viability, T/C [17]: 10.7%
- viability, T/C [18]: 5.07%
- viability, T/C [19]: 39.6%
- viability, T/C [20]: 38%
- viability, T/C [21]: 24.9%
- viability, T/C [22]: 15%
- viability, T/C [23]: 8.4%
- viability, T/C [24]: 4.07%
- viability, T/C [25]: 22.4%
- viability, T/C [26]: 25%
- viability, T/C [27]: 16.6%
- viability, T/C [28]: 9.92%
- viability, T/C [29]: 7.32%
- viability, T/C [30]: 2.47%
- viability, T/C [31]: 16.7%
- viability, T/C [32]: 18%
- viability, T/C [33]: 13.8%
- viability, T/C [34]: 8.39%
- viability, T/C [35]: 5.39%
- viability, T/C [36]: 2.13%
- viability, T/C [37]: 18%
- viability, T/C [38]: 14%
- viability, T/C [39]: 12.4%
- viability, T/C [40]: 7.41%
- viability, T/C [41]: 3.93%
- viability, T/C [42]: 1.56%

- pIC50 [1]: > 7.50
- pIC50 [2]: > 7.50
- pIC50 [3]: > 7.50
- pIC50 [4]: > 7.50
- pIC50 [5]: > 7.50
- pIC50 [6]: > 7.50
SMILES: NC1c2ccccc2OC12CCN(c1cnc3c(N4CCCc5ncccc54)n[nH]c3n1)CC2 (stereo not drawn) + CCn1c(-c2cc(N3CCN(C)CC3)cnc2C(C)OC)c2c3cc(ccc31)-c1csc(n1)CC(NC(=O)C1CC1C)C(=O)N1CCCC(N1)C(=O)OCC(C)(C)C2
- viability, T/C [7]: 39.3%
- viability, T/C [8]: 25.7%
- viability, T/C [9]: 20%
- viability, T/C [10]: 19.5%
- viability, T/C [11]: 16.9%
- viability, T/C [12]: 12.2%
- viability, T/C [13]: 27.1%
- viability, T/C [14]: 19.2%
- viability, T/C [15]: 17.9%
- viability, T/C [16]: 16.2%
- viability, T/C [17]: 13.6%
- viability, T/C [18]: 10.3%
- viability, T/C [19]: 24.2%
- viability, T/C [20]: 15.6%
- viability, T/C [21]: 17%
- viability, T/C [22]: 15%
- viability, T/C [23]: 12.8%
- viability, T/C [24]: 8.86%
- viability, T/C [25]: 16.8%
- viability, T/C [26]: 14.8%
- viability, T/C [27]: 12.6%
- viability, T/C [28]: 12.7%
- viability, T/C [29]: 14.2%
- viability, T/C [30]: 9.33%
- viability, T/C [31]: 18.1%
- viability, T/C [32]: 14%
- viability, T/C [33]: 15.2%
- viability, T/C [34]: 13.8%
- viability, T/C [35]: 12.2%
- viability, T/C [36]: 9.38%
- viability, T/C [37]: 13.6%
- viability, T/C [38]: 13.6%
- viability, T/C [39]: 13.6%
- viability, T/C [40]: 12.8%
- viability, T/C [41]: 11.7%
- viability, T/C [42]: 7.8%

- pIC50 (compound alone, run of 09/09/2024): < 5.00 and 5.06
SMILES: C#Cc1c(F)ccc2cc(O)cc(-c3ncc4c(N5CC6CCC(C5)N6)nc(OCC56CCCN5CC(F)C6)nc4c3F)c12 (stereo not drawn)
- viability, T/C (compound 0.0316 µM): 104% [middle of 8 runs]
- viability, T/C (compound 0.1 µM): 106% [middle of 8 runs]
- viability, T/C (compound 0.316 µM): 106% [middle of 8 runs]
- viability, T/C (compound 1 µM): 101% [middle of 8 runs]
- viability, T/C (compound 3.16 µM): 85.1% [middle of 8 runs]
- viability, T/C (compound 10 µM): 59.7% [middle of 8 runs]

- pIC50 [1]: 7.26
- pIC50 [2]: 7.30
- pIC50 [3]: 7.27
- pIC50 [4]: 7.35
- pIC50 [5]: 7.34
- pIC50 [6]: 7.43
SMILES: Cc1nc(N2CCC3(CC2)COC(C)C3N)c(CO)nc1Sc1ccnc(N)c1Cl (stereo not drawn) + CCn1c(-c2cccnc2C(C)OC)c2c3cc(ccc31)N1CCOC(CC(NC(=O)C(C(C)C)N(C)C(=O)C3(F)CCN(C(=O)C#CC(C)(C)N(C)C)CC3)C(=O)N3CCCC(N3)C(=O)OCC(C)(C)C2)C1
- viability, T/C [7]: 57.4%
- viability, T/C [8]: 43.4%
- viability, T/C [9]: 31.3%
- viability, T/C [10]: 21%
- viability, T/C [11]: 20.8%
- viability, T/C [12]: 17.4%
- viability, T/C [13]: 55.1%
- viability, T/C [14]: 42%
- viability, T/C [15]: 31.6%
- viability, T/C [16]: 22.2%
- viability, T/C [17]: 17.3%
- viability, T/C [18]: 20.6%
- viability, T/C [19]: 55.1%
- viability, T/C [20]: 44.2%
- viability, T/C [21]: 28.6%
- viability, T/C [22]: 21.3%
- viability, T/C [23]: 23.1%
- viability, T/C [24]: 16.4%
- viability, T/C [25]: 53.8%
- viability, T/C [26]: 40.2%
- viability, T/C [27]: 34.5%
- viability, T/C [28]: 27.6%
- viability, T/C [29]: 18.6%
- viability, T/C [30]: 17.8%
- viability, T/C [31]: 55.4%
- viability, T/C [32]: 37%
- viability, T/C [33]: 34.3%
- viability, T/C [34]: 24.1%
- viability, T/C [35]: 19.4%
- viability, T/C [36]: 23.6%
- viability, T/C [37]: 51.3%
- viability, T/C [38]: 42.1%
- viability, T/C [39]: 31.6%
- viability, T/C [40]: 22.6%
- viability, T/C [41]: 20.8%
- viability, T/C [42]: 21.4%

Source: PubChem BioAssay AID2060883 (Molecular Pharmacology Branch, DTP, NCI, 2025)
